Data as given in US12102651B1, “Solvent-based method for making nanocomposite pharmaceutical material” (Imam Abdulrahman Bin Faisal University, priority 2022, dated 2024).

Experiments:
[1] = test system: Pseudomonas aeruginosa ATCC27853; test: Broth dilution MIC/MBC against Pseudomonas aeruginosa; format: cell-based; details: P. aeruginosa, 24 h, 37° C.
Procedure: (§1) Bacterial strains of Pseudomonas aeruginosa ATCC27853 (gram-negative) and Staphylococcus aureus ATCC25923 (gram-positive) were subjected to antibacterial studies. The bacteria were sub-cultured and maintained on Mueller Hinton Agar (MHA). A stock solution of the nanomaterial (8 mg/ml) was sonicated for 10 minutes in Mueller Hinton Broth (MHB) to obtain a homogenized solution for an antibacterial assay. Inoculum was prepared by adjusting the cell number to 1.5×10^8 colony forming unit per milliliter (CFU per ml) by using freshly grown strains, grown overnight at 37° C. […] About 100 μL of adjusted inoculum was inoculated into each tube and were further incubated for 24 h (at 37° C.) with agitation of 120 rotations per minute (rpm). A control tube of bacteria, also referred as control, had no nanomaterial. 10 μL extracted from the tubes were put on prepared MHA plates and further incubated at the same conditions. After the completion of incubation duration, the MHA plates were recorded for MIC and MBC values. MIC was taken as the lowest concentration of nanomaterial that inhibited 90% of the bacterial growth. However, MBC was recorded as the lowest concentration that killed the bacterial cells or had CFU less than three. […]

[2] = test system: Staphylococcus aureus ATCC25923; test: Broth dilution MIC/MBC against Staphylococcus aureus; format: cell-based; details: S. aureus, 24 h, 37° C.
Procedure: as §1

HCT-116 cells = test: Apoptotic DAPI staining assay on HCT-116 cells; format: cell-based, human; details: HCT-116, 25 μg/ml, 48-hour treatment
From the text: DAPI is a fluorescent dye used to distinguish between live and dead cells. In live cells, the dye pass through a membrane less effectively. Therefore, the DAPI staining assay is an effective marker to identify the cell viability based on the cell structural changes. The morphology changes of cancer nuclear structure due to treatments of MSS, 1 wt. % Ag/MSS, 2 wt. % Ag/MSS, 4 wt. % Ag/MSS, 6 wt. % Ag/MSS, Ag-silicalite, and CP were examined by the DAPI staining assay. Cells were divided into two groups such as a control group and an experimental group. The control group was without nano formulation and CP treatments. In the experimental group, 1 wt. % Ag/MSS, 2 wt. % Ag/MSS, 4 wt. % Ag/MSS, 6 wt. % Ag/MSS, Ag-silicalite, and CP (25 μg/ml) were added.
Post 48-hour treatment, the control and experimental groups were exposed to ice-cold (4%) paraformaldehyde and further with Triton X-100 in the PBS solution. The cells were stained with DAPI (1.0 μg/ml) for 5 minutes under a dark environment, and the cells were finally washed with the PBS solution and cover slipped. A deoxyribonucleic acid (DNA) staining was examined by using confocal scanning microscope (Zeiss, Germany). The data presented as mean (±) standard deviation (SD) obtained from triplicates and one-way ANOVA followed by Dennett's post hoc test with GraphPad Prism Software (GraphPad Software, USA) for final statistical analysis.

[3] = test system: human cervical cancer (HeLa) cells; test: MTT cell viability assay on HeLa cells; format: cell-based; details: for effect on HeLa cell viability, growth and proliferation (in words): 48 hours, 5.0 to 50 μg/ml
Procedure: (§2) Two cancer cell lines, namely, HCT-116 and HeLa were considered to study the impact of samples (medicinal nanocomposite) on viability and proliferation of such cell lines. A non-cancer cell line, embryonic kidney cells (HEK-293), was considered as a control cell line. HCT-116, HeLa and HEK-293 are collectively referred to as ‘the cells’ or individually as ‘the cell’ unless otherwise specified. The cells were cultured and maintained in the Dulbecco's Modified Eagle Media (DMEM), L-glutamine (5%), penicillin (1%), streptomycin (1%), Fetal bovine serum (FBS) (10%), and selenium chloride (1%). The cells were grown in 96 well plates in a 5% CO2 incubator (Thermo Fisher Scientific, Inc., Waltham, MA, USA) at 37° C., and 75-80% confluence cells and the cells processed for further assay.
A MTT assay is a colorimetric assay for measuring cell metabolic activity. The MTT assay is based on the ability of nicotinamide adenine dinucleotide phosphate (NADPH)-dependent cellular oxidoreductase enzymes to reduce the tetrazolium dye MTT to insoluble formazan, which has a purple colour. […] In control group, MSS, 1 wt. % Ag/MSS, 2 wt. % Ag/MSS, 4 wt. % Ag/MSS, 6 wt. % Ag/MSS, Ag-silicalite, and CP were […] and after 48 hours, the cells were incubated in MTT (Sigma-Aldrich, St. Louis, MO, USA) for 4 hours.
(§3) In control and nano formulation treated cells, MTT (5 mg/ml) was added, and the cells were further incubated in a CO2 incubator for 4 hours. Further, the cell culture media was replaced with dimethyl sulfoxide (DMSO) (1%), and the 96-well plate was further examined under an enzyme-linked immunoassay (ELISA) plate reader (Biotek Instruments, USA) at a wavelength of 570 nm. The percentage of cell viability was calculated for a statistical analysis. ANOVA were used to analyze the data. All the analysis was run on GraphPad Prism software. P value less than 0.05 was taken as significant difference in results.

[4] = test system: human colorectal carcinoma (HCT-116) cells; test: MTT cell viability assay on HCT-116 cells; format: cell-based
Procedure: as §2
A MTT assay is a colorimetric assay for measuring cell metabolic activity. […]
as §3, with “ANOVA were used to analyze the data. All the analysis was run on GraphPad Prism software. P value less than 0.05 was taken as significant difference in results.” left out

Row | Structure (SMILES) | antibacterial activity, MIC/MBC (in words) [1] | antibacterial activity, MIC/MBC (in words) [2] | number of DAPI stained colon cancer cells versus control (in words) (HCT-116 cells) | effect on HeLa cell viability, growth and proliferation (in words) [3] | effect on HeLa cell viability, growth and proliferation (in words) ([3]; listed as cisplatin) | inhibitory concentration (IC50) ([3]; HeLa cells, 48 hours treatment) | effect on HCT-116 cell viability, growth and proliferation (in words) ([4]; 48 hours, 5.0 to 50 μg/ml) | inhibitory concentration (IC50) ([4]; HCT-116 cells, 48 hours treatment)
1 | O=[N+]([O-])[O-].[Ag+] [AgNO3, Silver nitrate] | showed effectiveness | showed effectiveness |  |  |  |  |  | 
2 | N.N.[Cl][Pt][Cl] [CP, cisplatin] |  |  | significant decrease in the number of colon cancer cells | dose-dependent inhibitory action | significant decrease | 13 mg/L | dose-dependent inhibitory action | 13 mg/L
